Assay results: patent US20240366607A1, “COMPOSITION FOR PREVENTION OR TREATMENT OF ATOPIC DERMATITIS COMPRISING AKT SIGNALING PATHWAY INHIBITOR AS ACTIVE INGREDIENT” (priority 2021, published 2024)

How the values were obtained:
[1] = test system: normal skin tissue; experiment: MTT assay, cell viability in normal skin tissue; type: cell-based; conditions: for cell viability: normal skin tissue
Procedure: To determine the final concentration of the drug ipatasertib, normal skin tissue was seeded in a 96-well plate, and treated with ipatasertib at varying concentrations of 1 μM, 10 μM, 50 μM, 100 μM, and 200 μM. The safety and toxicity of the drug to the normal skin tissue were evaluated by measuring the absorbance at 540 nm.

[2] = test system: NC/Nga mice with induced atopic dermatitis; experiment: HDM-induced atopic dermatitis in NC/Nga mice: skin lesions and SCORAD index; type: in vivo, mouse
Procedure: NC/Nga mice showing clinical and histological phenotypes similar to atopic dermatitis were used. To prepare atopic dermatitis animal models, atopic skin lesions were induced by treating mice with house dust mites (HDM), a representative trigger/aggravator of atopic dermatitis (FIG. 2).
(§1) Atopic skin lesions were induced in NC/Nga mice by treatment with HDM three times a week until 4 weeks after the start of the experiment, and then each mouse was treated with ipatasertib and/or 0.1% dexamethasone (200 μL) three times a week for another four weeks (FIG. 3). Control groups consisted of a non-HDM-treated group (3 animals), a HDM-treated group (3 animals), and a HDM-and 0.1% dexamethasone-treated group (3 animals, positive control group), and experimental groups were administered ipatasertib after HDM treatment. Then, in order to check changes in skin-specific T cells in each animal, single suspensions were prepared using the spleen, skin, and lymph nodes, and T-cells were stained using anti-CD3, anti-CD4, anti-CD8, and CD45 antibodies. Flow cytometry was performed on skin-specific T cells using anti-CD69 and anti-CD103 antibodies, thereby observing the changes in number and distribution of skin-specific T cells by the application of the drug.
To evaluate the effect of ipatasertib administration in NC/Nga mice with induced atopic dermatitis, atopic dermatitis was induced by applying house dust mite (HDM) ointment to the mouse's back three times a week for 4 weeks, and then ipatasertib drug was applied to the mouse's back three times a week for another 4 weeks. […] Each score was obtained by the Wilcoxon signed-rank test, and P<0.05 was considered statistically significant. Three mice per group were tested.

[3] = test system: serum total IgE; experiment: Serum total IgE by ELISA in atopic dermatitis mouse model; type: in vivo
Procedure: as §1
(§2) Blood was collected from the mouse heart, and then serum total DF-specific IgE (ng/mL) (A450) was measured in a 96-well plate (Corning Inc., Corning, NY, USA) using the ELISA MAX™ Delux Set (BioLegend, San Diego, CA, USA) kit.
The changes in serum total IgE levels in atopic dermatitis mouse models by ipatasertib treatment were measured. […]

[4] = test system: DF-specific IgE; experiment: Serum total DF-specific IgE by ELISA in atopic dermatitis mouse model; type: in vivo; conditions: 100 μM
Procedure: as §1, §2
House dust mites are a common cause of allergy, and based on this fact, DF-specific IgE was measured.

[5] = test system: skin tissue of NC/Nga mice; experiment: H&E staining of skin tissue of HDM-treated NC/Nga mice (eosinophil count, epidermal thickness); type: in vivo, mouse
Procedure: Data are expressed as mean±standard deviation (SD). **P<0.01, *P<0.05.
as §1
Patients with allergic diseases often have a blood eosinophil count that increased by more than 5%, and based on this fact, eosinophils were counted by hematoxylin and eosin (H&E) staining. […] In addition, when atopic dermatitis occurs, the skin thickens due to an excessive inflammatory response.

[6] = test system: T cells in skin-draining lymph nodes; experiment: FACS of T cell fractions in skin-draining lymph nodes of atopic dermatitis mouse model; type: in vivo
Procedure: as §1

[7] = test system: T cells in the spleen; experiment: FACS of T cell fractions in spleen of atopic dermatitis mouse model; type: in vivo
Procedure: as §1

[8] = test system: skin-specific T cells in the skin; experiment: FACS of skin-specific T cell fractions in skin of atopic dermatitis mouse model; type: in vivo
Procedure: as §1

[9] = test system: skin-specific T cells; experiment: FACS of T cells using skin immune cells and skin lesions of atopic dermatitis patients; type: cell-based, human
Procedure: To verify the effect of the candidate drug on skin-specific T cells in human skin tissue, a single suspension was prepared using the skin from an atopic dermatitis patient. T cells were stained using anti-CD3, anti-CD4, anti-CD8 and anti-CD45 antibodies, and flow cytometry was performed on skin-specific T cells using anti-CD69 and anti-CD103 antibodies, thereby observing the changes in number and distribution of skin-specific T cells by the application of the drug.

[10] = test system: humanized avatar mouse model; experiment: Therapeutic effect in humanized avatar mouse model with HDM-induced atopic dermatitis; type: in vivo; conditions: applied to the back three times a week for one week after three weeks HDM
Procedure: (§3) PBMCs were obtained from blood samples isolated from atopic dermatitis patients, and then CD3+ T cells, which are pathogenic cells, and CD3-depleted PBMCs, which are antigen-presenting cells, were separated therefrom. Human PBMC cells obtained by this method were injected into an immunodeficient NSG mouse by two different routes of administration. That is, avatar mice were prepared by injecting CD3+ T cells, which are pathogenic cells, through intravenous injection, and CD3-depleted PBMCs through intradermal injection. After the hair on the back of the prepared avatar mouse was shaved, dead skin cells were removed using 3M film once every three days, and 100 mg of house dust mite ointment was applied to the back of the mouse for three weeks. Then, from week 4, the mouse was treated with house dust mite ointment plus ipatasertib to evaluate the therapeutic effect of ipatasertib (FIG. 14A).

[11] = test system: human T cells in the skin of the avatar mouse; experiment: Human T cell fractions in the skin of the avatar mouse; type: in vivo
Procedure: as §3

[12] = 100 μM, compared to 0.1% dexamethasone group

For `CC(C)NC[C@@H](C(=O)N1CCN(c2ncnc3c2[C@H](C)C[C@H]3O)CC1)c1ccc(Cl)cc1` [ipatasertib], the cell viability ([1]; 50 μM) was no less than 90%, the cell viability ([1]; 100 μM) was no less than 90% and the “toxicity in normal skin tissue” value ([1]; up to 100 μM) was “no significant toxicity”. For the same molecule, the “recovery of skin lesions” value ([2]; 100 μM, applied to the back three times a week for 4 weeks) was “most notable recovery”, the “scoring atopic dermatitis (SCORAD) index” value [2, 12] was “lower SCORAD index than the 0.1% dexamethasone-administered group” and the “therapeutic effect on atopic dermatitis skin lesions” value ([2]; applied to the back three times a week for 4 weeks after 4 weeks HDM) was “significant therapeutic effect was observed in a drug concentration-dependent manner”. For the same molecule, the “wounds, dryness, and shedding” value ([2]; compared to positive control 0.1% dexamethasone) was “significantly reduced compared to the positive control group administered 0.1% dexamethasone”, the “scoring atopic dermatitis (SCORAD) index” value ([2]; ipatasertib-administered groups, three mice per group) was “significantly decreased” and the “decrease in the total serum IgE level” value [3, 12] was “significantly greater”. The “serum total IgE level” value ([3]; ELISA, ipatasertib groups up to 100 μM) was “decreased in a dose-dependent manner”, the “total DF-specific IgE level” value [4] was “significantly decreased” and the “total DF-specific IgE level” value ([4]; compared to 0.1% dexamethasone group) was “significantly decreased even compared to that in the 0.1% dexamethasone group”. For the same molecule, the eosinophil count [5] was “decreased depending on the ipatasertib concentration”, the epidermal thickness [5] was “decreased as the concentration of ipatasertib increased” and the “fraction of T cells expressing CD69 among CD3+ CD4+ T cells” value [6] was “tended to decrease”. The “fraction of CD3+ CD4+ CD103+ T cells” value ([6]; 100 μM) was “statistically significantly lowest”, the “proportion of CD3+ T cells” value ([6]; 100 μM) was “lowest proportion of CD3+ T cells” and the “CD69+ T cells and CD103+ T cells” value [7] was “decreased statistically significantly”. For the same molecule, the “proportion of CD3+ and CD4+ T cells” value [7] was “decreased in a dose-dependent manner”, the “proportions of CD3+, CD4+, CD69+, and CD103+ skin-specific T cells” value ([8]; 50 μM, skin) was “significantly decreased” and the “proportions of CD3+, CD4+, CD69+, and CD103+ skin-specific T cells” value ([8]; 100 μM, skin) was “significantly decreased”. The “CD69+ T cells and CD103+ T cells” value ([8]; skin tissues of the ipatasertib groups) was “statistically significantly decreased”, the “proportions of skin-specific T cells” value ([8]; skin, compared to 0.1% dexamethasone-treated group) was “significantly decreased even compared to that in the 0.1% dexamethasone-treated group” and the “proportion of skin-specific T cells” value ([9]; 50 μM) was “significantly decreased”. The “proportion of skin-specific T cells” value ([9]; 100 μM) was “significantly decreased”, the “therapeutic effect against atopic dermatitis” value [10] was “clinically significant therapeutic effect” and the “proportion of human CD3 T cells” value ([11]; 100 μM, compared to control group) was “significantly decreased compared to that in the control group”. The “proportions of human CD8 and CD4 cells” value ([11]; drug-treated group) was “significantly lower”.
